# Reference: US8685928B2, “Antagonists of MUC1” (Dana-Farber Cancer Institute, Inc., priority 2010, dated 2014)
# Positions of bridges follow the written chain, without caps; N, C: chain ends. Non-standard residues stand in square brackets, D forms with d. Residues, ends and D or L forms follow the SMILES beside them.
# Assay: Pivotal repeat-dose rat toxicity study
# Type: in vivo
# Conditions: for Safety margin: human starting dose lower than NOAEL: 3 mg/m^2 human starting dose
# Method: The proposed clinical trial will be a multicenter, open-label, dose-escalation, safety, pharmacodynamic and pharmacokinetic study in patients with advanced solid tumors administered GO-203-2c IV over 60 min once per day for 21 consecutive days; this dosing regimen will be repeated every 28 days. Since the majority of the treatment-related findings in rats and dogs were localized at the infusion site or were secondary to the infusion site reactions, the no-observed-adverse-effect-level (NOAEL) for systemic toxicity in the pivotal repeat-dose rat toxicity study was determined to be 5 mg/kg/day. The highest non-severely toxic dose (HNSTD), which was also considered the NOAEL, was established as 1 mg/kg/day in the dog pivotal repeat-dose toxicity study. For vascular injury at the injection site, the NOAEL in rats is […]. This concentration rate is 25-fold greater than the estimated concentration rate for humans (0.83 μg/mL/min) at the recommended starting dose of 3 mg/m2/day (assumes a body mass of 1.65 m2).
compound,measurement,setting,value
"CC(=O)N[C@H](CCCNC(=N)N)C(=O)N[C@H](CCCNC(=N)N)C(=O)N[C@H](CCCNC(=N)N)C(=O)N[C@H](CCCNC(=N)N)C(=O)N[C@H](CCCNC(=N)N)C(=O)N[C@H](CCCNC(=N)N)C(=O)N[C@H](CCCNC(=N)N)C(=O)N[C@H](CCCNC(=N)N)C(=O)N[C@H](CCCNC(=N)N)C(=O)N[C@@H]1CSSC[C@H](C(=O)N[C@H](CCCNC(=N)N)C(=O)N[C@H](CCCNC(=N)N)C(=O)N[C@H](CCCCN)C(=O)N[C@H](CC(N)=O)C(N)=O)NC(=O)[C@@H](CCC(N)=O)NC1=O [GO-203-2c, Ac-(D)Arg-(D)Arg-(D)Arg-(D)Arg-(D)Arg-(D)Arg-(D)Arg-(D)Arg-(D)Arg-(D)Cys-(D)Gln-(D)Cys-(D)Arg-(D)Arg-(D)Lys-(D)Asn-NH2 disulfide] (Ac-[dR][dR][dR][dR][dR][dR][dR][dR][dR][dC][dQ][dC][dR][dR][dK][dN]-NH2; disulfide 10-12)",Rat injection-site NOAEL concentration rate relative to estimated human concentration rate (0.83 μg/mL/min),human starting dose of 3 mg/m2/day,25 fold
same,NOAEL,"in vivo, rat, repeat-dose IV, read-out: NOAEL for systemic toxicity",5 mg/kg/day
same,NOAEL (systemic),"rat, body surface area basis",30 mg/m2/day
same,Safety margin: human starting dose lower than NOAEL,"rat, mg/kg basis",62 fold
same,Safety margin: human starting dose lower than NOAEL,"rat, mg/m^2 basis",10 fold
same,NOAEL for vascular injury at the injection site (concentration rate),rats,20.8 µg/mL/min
